Measurements reported in PubChem BioAssay AID248 (DTP/NCI, 2004).
Values joined by “and” are separate entries in the source; they are usually repeats but may differ in a detail not shown here. Equal entries are not always repeated. Inconclusive results and toxic doses are left out. Cut-off read from the data, not from the text of the source: active = T/C of 150% or more; inactive = T/C below 125%.

Test system: L1210 leukemia ip in BDF1 mice, survival T/C
Assay: NCI In Vivo Anticancer Drug Screen. Data for tumor model L1210 Leukemia (intraperitoneal) in B6D2F1 (BDF1) mice
Conditions: endpoint: mean survival time, higher = longer survival
In short: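 In this screen, tumor-bearing mice given compound are compared to those given vehicle, and their survival values are reported as a treated-to-control quotient.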

[1] = dose: 100.0 mg/kg/injection, schedule: Q01DX001 (ip), vehicle: saline
[2] = dose: 400.0 mg/kg/injection, schedule: Q01DX001 (ip), vehicle: saline
[3] = dose: 100.0 mg/kg/injection, schedule: Q01DX009 (ip), vehicle: Klucel (hydroxypropylcellulose) (HPC)
[4] = dose: 100.0 mg/kg/injection, schedule: Q04DX003 (ip), vehicle: Klucel (hydroxypropylcellulose) (HPC)
[5] = dose: 200.0 mg/kg/injection, schedule: Q01DX009 (ip), vehicle: Klucel (hydroxypropylcellulose) (HPC)
[6] = dose: 200.0 mg/kg/injection, schedule: Q04DX003 (ip), vehicle: Klucel (hydroxypropylcellulose) (HPC)
[7] = dose: 200.0 mg/kg/injection, schedule: Q01DX001 (ip), vehicle: saline
[8] = dose: 12.5 mg/kg/injection, schedule: Q01DX009 (ip), vehicle: saline
[9] = dose: 25.0 mg/kg/injection, schedule: Q01DX009 (ip), vehicle: saline
[10] = dose: 50.0 mg/kg/injection, schedule: Q01DX009 (ip), vehicle: saline
[11] = dose: 100.0 mg/kg/injection, schedule: Q04DX003 (ip), vehicle: saline
[12] = dose: 150.0 mg/kg/injection, schedule: Q04DX003 (ip), vehicle: saline
[13] = dose: 200.0 mg/kg/injection, schedule: Q04DX003 (ip), vehicle: saline
[14] = dose: 400.0 mg/kg/injection, schedule: Q04DX003 (ip), vehicle: saline
[15] = dose: 100.0 mg/kg/injection, schedule: Q01DX001 (ip), vehicle: carboxymethylcellulose (CMC)
[16] = dose: 200.0 mg/kg/injection, schedule: Q01DX001 (ip), vehicle: carboxymethylcellulose (CMC)
[17] = dose: 400.0 mg/kg/injection, schedule: Q01DX001 (ip), vehicle: carboxymethylcellulose (CMC)
[18] = dose: 50.0 mg/kg/injection, schedule: Q01DX001 (ip), vehicle: saline

Measured: T/C

O=CC(O)C(O)C(OC1OC(CO)C(O)C(O)C1O)C(O)CO (configuration not stated) (tested in a mixture with another compound)
inactive: dose: 75.0 mg/kg/injection, schedule: Q01DX009 (ip), vehicle: carboxymethylcellulose (CMC) 105 % of control | dose: 100.0 mg/kg/injection, schedule: Q01DX001 (ip), vehicle: saline with Tween-80 94 % of control and 98 % of control | dose: 100.0 mg/kg/injection, schedule: Q01DX009 (ip), vehicle: carboxymethylcellulose (CMC) 98 % of control | dose: 100.0 mg/kg/injection, schedule: Q01DX009 (ip), vehicle: saline with Tween-80 94 % of control | dose: 100.0 mg/kg/injection, schedule: Q04DX002 (ip), vehicle: saline with Tween-80 108 % of control [middle of 4 runs] | dose: 100.0 mg/kg/injection, schedule: Q04DX003 (ip), vehicle: saline with Tween-80 97 % of control and 108 % of control | dose: 150.0 mg/kg/injection, schedule: Q01DX009 (ip), vehicle: carboxymethylcellulose (CMC) 105 % of control | dose: 200.0 mg/kg/injection, schedule: Q01DX001 (ip), vehicle: saline with Tween-80 98 % of control and 105 % of control | dose: 200.0 mg/kg/injection, schedule: Q01DX009 (ip), vehicle: carboxymethylcellulose (CMC) 105 % of control | dose: 200.0 mg/kg/injection, schedule: Q01DX009 (ip), vehicle: saline with Tween-80 100 % of control | dose: 200.0 mg/kg/injection, schedule: Q04DX002 (ip), vehicle: saline with Tween-80 97 % of control [middle of 4 runs] | dose: 200.0 mg/kg/injection, schedule: Q04DX003 (ip), vehicle: saline with Tween-80 91 % of control and 92 % of control | dose: 300.0 mg/kg/injection, schedule: Q01DX009 (ip), vehicle: carboxymethylcellulose (CMC) 100 % of control | dose: 400.0 mg/kg/injection, schedule: Q01DX001 (ip), vehicle: saline with Tween-80 93 % of control and 92 % of control | dose: 400.0 mg/kg/injection, schedule: Q01DX009 (ip), vehicle: carboxymethylcellulose (CMC) 96 % of control | dose: 400.0 mg/kg/injection, schedule: Q04DX002 (ip), vehicle: saline with Tween-80 96 % of control and 92 % of control and 94 % of control | dose: 400.0 mg/kg/injection, schedule: Q04DX003 (ip), vehicle: saline with Tween-80 101 % of control and 92 % of control

O=C(O)C(=S)Cc1cn[nH]n1
inactive: [1] 103 % of control | [2] 100 % of control

O=C(Nc1ccc(Cl)cc1)C(Cl)Cl
inactive: [3] 98 % of control | [4] 100 % of control | [5] 98 % of control | [6] 100 % of control | dose: 400.0 mg/kg/injection, schedule: Q01DX009 (ip), vehicle: Klucel (hydroxypropylcellulose) (HPC) 102 % of control | dose: 400.0 mg/kg/injection, schedule: Q04DX003 (ip), vehicle: Klucel (hydroxypropylcellulose) (HPC) 102 % of control

O=C(Nc1ccccc1C1=NCCN1)c1ccc(C(=O)Nc2ccccc2C2=NCCN2)cc1
inactive: dose: 15.0 mg/kg/injection, schedule: Q01DX Z (ip), vehicle: methylcellulose (MC) 88 % of control | dose: 30.0 mg/kg/injection, schedule: Q01DX Z (ip), vehicle: methylcellulose (MC) 95 % of control | dose: 62.0 mg/kg/injection, schedule: Q01DX Z (ip), vehicle: carboxymethylcellulose (CMC) 92 % of control | dose: 125.0 mg/kg/injection, schedule: Q01DX Z (ip), vehicle: carboxymethylcellulose (CMC) 94 % of control | dose: 250.0 mg/kg/injection, schedule: Q01DX Z (ip), vehicle: carboxymethylcellulose (CMC) 88 % of control

COC(=O)CSc1ncc2cnccn12
inactive: dose: 100.0 mg/kg/injection, schedule: Q01DX009 (ip), vehicle: water 105 % of control | dose: 100.0 mg/kg/injection, schedule: Q04DX003 (ip), vehicle: water 119 % of control | dose: 200.0 mg/kg/injection, schedule: Q01DX009 (ip), vehicle: water 98 % of control | dose: 200.0 mg/kg/injection, schedule: Q04DX003 (ip), vehicle: water 98 % of control | dose: 400.0 mg/kg/injection, schedule: Q01DX009 (ip), vehicle: water 98 % of control | dose: 400.0 mg/kg/injection, schedule: Q04DX003 (ip), vehicle: water 104 % of control

CC1CCCC[N-]1.CC1CCCC[N-]1.CC1CCCC[N-]1.CC1CCCC[N-]1.N#CS.[Zn+2] (configuration not stated)
inactive: [1] 93 % of control | [7] 103 % of control

C=CC[N+]12CCCC1C(=C)CC2 (configuration not stated)
inactive: [8] 106 % of control | [9] 100 % of control | [10] 97 % of control and 106 % of control

CN1CC2C(N)N=C(N)NC2C1(C)C (configuration not stated)
inactive: dose: 100.0 mg/kg/injection, schedule: Q04DX002 (ip), vehicle: saline 101 % of control | dose: 200.0 mg/kg/injection, schedule: Q04DX002 (ip), vehicle: saline 93 % of control | dose: 400.0 mg/kg/injection, schedule: Q04DX002 (ip), vehicle: saline 90 % of control

O=C(CCC(C(=O)c1ccccc1)c1ccccc1)c1ccc(-c2ccccc2)cc1 (configuration not stated)
inactive: dose: 87.5 mg/kg/injection, schedule: Q01DX009 (ip), vehicle: Klucel (hydroxypropylcellulose) (HPC) 94 % of control

CN(C)n1cc(C#N)c(=O)[nH]c1=O
inactive: dose: 50.0 mg/kg/injection, schedule: Q01DX009 (ip), vehicle: Klucel (hydroxypropylcellulose) (HPC) 90 % of control | [3] 90 % of control | [4] 100 % of control | [5] 100 % of control | [6] 97 % of control

CCN1CCN(Cc2ccccc2)C(CCl)C1 (configuration not stated)
inactive: dose: 12.5 mg/kg/injection, schedule: Q01DX009 (ip), vehicle: Klucel (hydroxypropylcellulose) (HPC) 96 % of control | dose: 12.5 mg/kg/injection, schedule: Q04DX003 (ip), vehicle: Klucel (hydroxypropylcellulose) (HPC) 100 % of control | dose: 25.0 mg/kg/injection, schedule: Q01DX009 (ip), vehicle: Klucel (hydroxypropylcellulose) (HPC) 102 % of control | dose: 25.0 mg/kg/injection, schedule: Q04DX003 (ip), vehicle: Klucel (hydroxypropylcellulose) (HPC) 96 % of control | dose: 50.0 mg/kg/injection, schedule: Q04DX003 (ip), vehicle: Klucel (hydroxypropylcellulose) (HPC) 93 % of control

C[n+]1cccc(O)c1
inactive: dose: 67.0 mg/kg/injection, schedule: Q04DX003 (ip), vehicle: saline 105 % of control | dose: 100.0 mg/kg/injection, schedule: Q01DX009 (ip), vehicle: saline 90 % of control | [11] 107 % of control | [12] 105 % of control | dose: 200.0 mg/kg/injection, schedule: Q01DX009 (ip), vehicle: saline 93 % of control | [13] 124 % of control | dose: 400.0 mg/kg/injection, schedule: Q01DX009 (ip), vehicle: saline 92 % of control | [14] 97 % of control

Br/C1=C/CCCCCC1
inactive: dose: 75.0 mg/kg/injection, schedule: Q04DX003 (ip), vehicle: saline 102 % of control | [12] 96 % of control

COC1=C(NCc2ccco2)C(=O)C(OC)=C(NCc2ccco2)C1=O
inactive: dose: 50.0 mg/kg/injection, schedule: Q01DX001 (ip), vehicle: carboxymethylcellulose (CMC) 96 % of control | [15] 91 % of control | [16] 86 % of control | [17] 96 % of control

COc1ccccc1NS(=O)(=O)c1ccccc1
inactive: [15] 92 % of control | [16] 103 % of control | [17] 103 % of control

O=C(c1ccccc1)c1ccc(Cl)c([N+](=O)[O-])c1
inactive: [18] 103 % of control | [1] 100 % of control | [7] 91 % of control | [2] 97 % of control

O=c1c(O)c(-c2ccc(Cl)cc2)oc2cc(O)ccc12
inactive: dose: 100.0 mg/kg/injection, schedule: Q01DX001 (ip), vehicle: other 101 % of control | dose: 200.0 mg/kg/injection, schedule: Q01DX001 (ip), vehicle: other 101 % of control | dose: 400.0 mg/kg/injection, schedule: Q01DX001 (ip), vehicle: other 93 % of control

Nc1ccc2cc(S(=O)(=O)O)ccc2c1
inactive: [11] 96 % of control | [13] 94 % of control | [14] 94 % of control

Nc1ncnc2c1c1c(N)[nH]nc1n2C1OC(CO)C(O)C1O (configuration not stated)
inactive: [8] 114 % of control | [9] 121 % of control | [1] 104 % of control | [7] 106 % of control | [2] 121 % of control
active: [10] 150 % of control

COc1ccccc1CN1CCCN(Cc2ccccc2OC)C1c1cc(Cl)ccc1O
inactive: [18] 101 % of control | [1] 95 % of control | [7] 97 % of control | [2] 101 % of control
